Type in all cases: in vivo
Assay [1] relates to Tetranychus urticae. Description: Tetranychus urticae - spray test OP-resistant. The following applies: foliar, 144 h, French bean leaf disks, all instars, after 6 days. The protocol: Tetranychus urticae—Spray Test OP-Resistant
To produce a suitable preparation of active compound, 1 part by weight of active compound is mixed with the stated amount of solvents and is diluted with water, containing an emulsifier concentration of 1000 ppm, to the desired concentration. Further test concentrations are prepared by dilution with emulsifier containing water.
French bean (Phaseolus vulgaris) leaf disks infected with all instars of the two spotted spidermite (Tetranychus urticae), are sprayed with a preparation of the active ingredient of the desired concentration.
After 6 days mortality in % is determined. 100% means all spider mites have been killed and 0% means none of the spider mites have been killed.

Assay [2] concerns Diabrotica balteata. The experiment in a line: Diabrotica balteata - spray test. The following applies: 168 h, 160 μg/well, germinated wheat seeds, larvae, after 7 days, read-out: efficacy in %. The method, boiled down: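 Efficacy (%) read 7 days after infesting treated seedlings with 10-20 banded cucumber beetle larvae, 100% meaning growth as in uninfected untreated control and 0% no growth. Test solutions in water containing 1000 ppm emulsifier were sprayed onto wheat seeds germinated for 1 day on agar.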

The test system of assay [3] is Spodoptera frugiperda. Description: Spodoptera frugiperda - spray test. The following applies: in Zea mays, 168 h, read-out: mortality in %. The method, boiled down: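 Leaf-spray assay on maize: sections treated with active ingredient at the desired concentration in emulsifier-containing water (1000 ppm) and, once dry, exposed to armyworm caterpillars. Kill rate is expressed in percent after seven days.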

Assay [4] has as its system Nezara viridula. Description: Nezara viridula - spray test 1. Conditions: in Hordeum vulgare, 96 h, read-out: mortality in %. In outline: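 Percent kill of Nezara viridula larvae was read 4 days after spraying infested barley (Hordeum vulgare). The spray was the compound concentrate diluted in 1000 ppm emulsifier-containing water.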
The subject of assay [5] is Meloidogyne incognita. The experiment in a line: Meloidogyne incognita - test. Conditions: 336 h, salad seedlings in sand, after 14 days, read-out: nematicidal activity (percentage of gall formation). The protocol: Meloidogyne incognita—Test
Solvent: 125.0 parts by weight of acetone
To produce a suitable preparation of active compound, 1 part by weight of active compound is mixed with the stated amount of solvent, and the concentrate is diluted with water to the desired concentration.
Vessels are filled with sand, a solution of the active ingredient, a suspension containing eggs and larvae of the southern root-knot nematode (Meloidogyne incognita) and salad seeds. The salad seeds germinate and the seedlings grow. Galls develop in the roots.
After 14 days the nematicidal activity is determined on the basis of the percentage of gall formation. 100% means no galls were found and 0% means the number of galls found on the roots of the treated plants was equal to that in untreated control plants.

The test system of assay [6] is Aphis gossypii. Description: Aphis gossypii - oral test. Conditions: 120 h, read-out: mortality in %. The method, boiled down:
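Oral exposure: compound solution, prepared from acetone concentrate diluted in water, combined with sugar-supplemented IPL41 medium and sealed under parafilm for aphid feeding. Percent kill recorded at day 5.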

Assay [7] relates to Phaedon cochleariae. Description: Phaedon cochleariae - spray test. The following applies: in Brassica rapa, foliar, 168 h, read-out: mortality in %. In outline:
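Mortality read 7 days after infestation; 100% means every larva dead, 0% none. Larvae placed on dried Chinese cabbage leaf disks previously sprayed with compound preparation diluted in emulsifier-containing water (1000 ppm).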

Assay [8] relates to Myzus persicae. The experiment in a line: Myzus persicae - oral test. Conditions: 120 h, read-out: mortality in %. In outline:
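Scoring at day 5 gives percent mortality (0% none, 100% all killed) of a mixed aphid population that sucked compound preparation in sugar-supplemented IPL41 medium through a parafilm seal.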

The subject of assay [9] is Nilaparvata lugens. The experiment in a line: Nilaparvata lugens - spray test 1. Conditions: in Oryza sativa, 96 h, read-out: mortality in %, 500 g/ha, rice plants, after 4 days. In outline: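 Mortality (%) was scored 4 days after infesting treated plants with brown planthopper, where 100% means all insects were killed. Compound was applied by spraying rice (Oryza sativa) at the desired concentration, diluted in water carrying 1000 ppm emulsifier.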

Assay [10] has as its system Culex quinquefasciatus. Description: Culex test (CULXFAS surface treatment & contact assay). Conditions: 30 minutes exposure, 24 hours after contact, read-out: efficacy (mortality in percent). Here is the method:
Culex Test (CULXFAS Surface Treatment & Contact Assay)
Solvent: Acetone+2000 ppm rapeseed oil methyl ester (RME)
In order to produce a sufficient, active ingredient containing solution it is necessary to solve the test-compound in an acetone/RME solvent mixture. This solution is pipetted onto a glazed tile and after evaporation of the acetone, adult mosquitoes of the species Culex quinquefasciatus (Brown house mosquito) are placed onto the dried surface. The exposure time is 30 minutes.
(§1) Mortality in percent (%) is determined 24 hours after contact to the treated surface. 100% mortality means that all test-insects are dead, whereas 0% means that not a single insect died.

Assay [11] deals with Musca domestica strain WHO-N. Description: Musca domestica test (MUSCDO surface treatment & contact assay). The following applies: 30 minutes exposure, 24 hours after contact, read-out: efficacy (mortality in percent). The protocol: Musca domestica Test (MUSCDO Surface Treatment & Contact Assay)
(§2) Solvent: Aceton+2000 ppm Rapeseed oil methyl ester (RME)
In order to produce a sufficient, active ingredient containing solution it is necessary to solve the test-compound in an acetone/RME solvent mixture. This solution is pipetted onto a glazed tile and after evaporation of the acetone, adult flies of the species Musca domestica strain WHO-N are placed onto the dried surface. The exposure time is 30 minutes.
as §1

The test system of assay [12] is Aedes aegypti strain MONHEIM. Description: Aedes test (AEDSAE surface treatment & contact assay). The following applies: 30 minutes exposure, 24 hours after contact, read-out: efficacy (mortality in percent). The protocol: Aedes Test (AEDSAE Surface Treatment & Contact Assay)
Solvent: Aceton+2000 ppm rapeseed oil methyl ester (RME)
In order to produce a sufficient, active ingredient containing solution it is necessary to solve the test-compound in an acetone/RME solvent mixture. This solution is pipetted onto a glazed tile and after evaporation of the acetone, adult mosquitoes of the species Aedes aegypti strain MONHEIM are placed onto the dried surface. The exposure time is 30 minutes.
as §1

The subject of assay [13] is Blattella germanica strain PAULINIA
Description: Blattella germanica test (BLTTGE surface treatment & contact assay). The following applies: 30 minutes exposure, 24 hours after contact, read-out: efficacy (mortality in percent). The protocol:
Blattella germanica Test (BLTTGE Surface Treatment & Contact Assay)
as §2
In order to produce a sufficient, active ingredient containing solution it is necessary to solve the test-compound in an acetone/RME solvent mixture. This solution is pipetted onto a glazed tile and after evaporation of the acetone, adult animals of the species Blattella germanica strain PAULINIA are placed onto the dried surface. The exposure time is 30 minutes.
as §1

Where [14] appears, read: surface concentration 4 mg/m^2, glazed tile.
[15] abbreviates: surface concentration 20 mg/m^2, glazed tile.

For the compound `CC(c1ncnn1-c1cncnc1)N(CC1CC1)C(=O)c1cc(Cl)cc(C(F)(F)F)c1` (stereo not shown) [Compound I-112], in [1], the mortality at 500 g/ha worked out at 90%. The pest or weed control at 160 µg/disc, 160 µg/well in assay [2] was 100%.

For `CC(c1ncnn1-c1ncc(Cl)cn1)N(CC1CC1)C(=O)c1cc(Cl)cc(C(F)(F)F)c1` (stereo not shown) [Compound I-80, 3-chloro-N-[1-[2-(5-chloropyrimidin-2-yl)-1,2,4-triazol-3-yl]ethyl]-N-(cyclopropylmethyl)-5-(trifluoromethyl)benzamide], the mortality at 500 g/ha in assay [3], in [4] and in [7] was 100% each time. For the same compound, in assay [5], the pest or weed control at 20 ppm is 90%. Moreover, the pest or weed control at 160 µg/disc, 160 µg/well in assay [2] came out at 100%. The mortality at 100 ppm in assay [6] was determined as 100%. The mortality at 20 ppm in assay [8] turned out to be 100%.

With `CC(c1ncnn1-c1ncccn1)N(CC1CC1)C(=O)c1cccc(C#N)c1` (stereo not shown) [Compound I-38, 3-cyano-N-(cyclopropylmethyl)-N-[1-(2-pyrimidin-2-yl-1,2,4-triazol-3-yl)ethyl]benzamide], the mortality at 500 g/ha in [4] and in assay [7] was 100% throughout. Further, in assay [5], the pest or weed control at 20 ppm is 100%. Further, in assay [2], the pest or weed control at 160 µg/disc, 160 µg/well was 100%. For the same compound, in [6], the mortality at 100 ppm was 100%. In addition, the mortality at 20 ppm in assay [8] is 100%.

As to `CC(c1ncnn1-c1ncccn1)N(CC1CC1)C(=O)c1cc(C(F)(F)F)cc(C(F)(F)F)c1` (stereo not shown) [Compound I-48, N-(cyclopropylmethyl)-N-[1-(2-pyrimidin-2-yl-1,2,4-triazol-3-yl)ethyl]-3,5-bis(trifluoromethyl)benzamide], the mortality at 500 g/ha in assay [9], in assay [3], in assay [4] and in [7] was 100% throughout. In addition, the mortality at 4 mg/m2 in [10] (setting [14]), in [11] (setting [14]), in assay [12] (setting [14]) and in assay [13] (setting [14]) was 80 to 100% each time. In addition, the mortality at 20 mg/m2 in assay [10] (setting [15]), in [11] (setting [15]), in assay [12] (setting [15]) and in assay [13] (setting [15]) was 80 to 100% throughout. Also, the pest or weed control at 20 ppm in [5] was 100%. Also, the pest or weed control at 160 µg/disc, 160 µg/well in assay [2] is 100%. In addition, the mortality at 100 ppm in [6] was 100%. In assay [8], the mortality at 20 ppm was determined as 100%.

In the case of `CC(c1ncnn1-c1ncccn1)N(CC1CC1)C(=O)c1cccc(SC(F)(F)F)c1` (stereo not shown) [Compound I-83], the mortality at 500 g/ha in [9] amounted to 100%; in assay [3], 83%; in [4], 100%; in assay [1] it was 100%; in [7], 100%. Further, the pest or weed control at 160 µg/disc, 160 µg/well in [2] was determined as 100%. The mortality at 100 ppm in assay [6] came to 100%. The mortality at 20 ppm in assay [8] came out at 100%.

As to `CC(c1ncnn1-c1ncccn1)N(CC(F)F)C(=O)c1cc(Cl)cc(C(F)(F)F)c1` (stereo not shown) [Compound I-89, 3-chloro-N-(2,2-difluoroethyl)-N-[1-(2-pyrimidin-2-yl-1,2,4-triazol-3-yl)ethyl]-5-(trifluoromethyl)benzamide], the mortality at 500 g/ha in [3] and in [7] was 100% each time. Further, the pest or weed control at 20 ppm in assay [5] amounted to 100%. The pest or weed control at 160 µg/disc, 160 µg/well in [2] was found to be 100%. The mortality at 100 ppm in assay [6] is 100%. In addition, the mortality at 20 ppm in [8] was 100%.

Turning to `CC(c1ncnn1-c1ncccn1)N(CC1CC1)C(=O)c1cccc(Cl)c1` (stereo not shown) [Compound I-108], the mortality at 500 g/ha in [9], in assay [4] and in assay [7] was 100% throughout. For the same compound, the pest or weed control at 20 ppm in [5] worked out at 90%. Also, in [2], the pest or weed control at 160 µg/disc, 160 µg/well was determined as 100%.

For `CC(c1ncnn1-c1ncccn1)N(CC1CC1)C(=O)c1cc(Cl)cc(SC(F)(F)F)c1` (stereo not shown) [Compound I-107, 3-chloro-N-(cyclopropylmethyl)-N-[1-(2-pyrimidin-2-yl-1,2,4-triazol-3-yl)ethyl]-5-(trifluoromethylsulfanyl)benzamide], the mortality at 500 g/ha in assay [9], in [3], in assay [4] and in assay [7] was 100% each time. Besides, the pest or weed control at 20 ppm in assay [5] came to 90%. Further, in assay [2], the pest or weed control at 160 µg/disc, 160 µg/well amounted to 100%. The mortality at 100 ppm in assay [6] was found to be 100%. Besides, the mortality at 20 ppm in [8] amounted to 100%.

As to `C[C@H](NC(=O)c1cc(Cl)cc(C(F)(F)F)c1)c1ncnn1-c1ncccc1Cl` [Compound I-116], the mortality at 500 g/ha in assay [9] was 100%; in [3], 100%; in [4], 100%; in assay [1], 95%; in [7], 100%. Further, in assay [2], the pest or weed control at 160 µg/disc, 160 µg/well was 100%. In addition, the mortality at 100 ppm in assay [6] turned out to be 100%. In assay [8], the mortality at 20 ppm stood at 90%.

Turning to `CC(c1ncnn1-c1ncccn1)N(CC1CC1)C(=O)c1cc(Cl)cc(Cl)c1` (stereo not shown) [Compound I-95], the mortality at 500 g/ha in assay [9] amounted to 90%; in [3], 100%; in assay [4] it was 100%; in assay [7] it was 100%. Besides, in assay [5], the pest or weed control at 20 ppm is 90%. Further, the pest or weed control at 160 µg/disc, 160 µg/well in [2] is 100%. In addition, the mortality at 100 ppm in assay [6] came out at 100%. In addition, the mortality at 20 ppm in [8] was 100%.

Take `CC(c1ncnn1-c1ncccn1)N(CC1CC1)C(=O)c1cncc(Br)c1` (stereo not shown) [Compound I-79]: the mortality at 500 g/ha in assay [9] came to 100%; in assay [4] it was 90%; in assay [7] it was 100%. The pest or weed control at 20 ppm in [5] was 100%. The pest or weed control at 160 µg/disc, 160 µg/well in assay [2] came out at 100%.

The values above are taken from patent publication US20200404919A1, “USE OF HETEROARYL-TRIAZOLE AND HETEROARYL-TETRAZOLE COMPOUNDS AS PESTICIDES IN PLANT PROTECTION” (Bayer Aktiengesellschaft, priority 2018, published 2020).
